Test results reported in patent publication US8828908B2, “Herbicidally active bicyclic 1,3-dione compounds” (Syngenta Limited, priority 2007, dated 2014).

Key:
Assay type in all cases: in vivo
[1] = system: Digitaria sanguinalis (DIGSA); experiment: Example B post-emergence herbicidal greenhouse test; details: 360 h, evaluated after 15 days, 100=total damage to plant, 0=no damage
Procedure: (§1) Seeds of a variety of test species were sown in standard soil in pots. After cultivation for one day (pre-emergence) or after 10 days cultivation (post-emergence) under controlled conditions in a glasshouse, the plants were sprayed with an aqueous spray solution derived from the formulation of the technical active ingredient in 0.6 ml acetone and 45 ml formulation solution containing 10.6% Emulsogen EL (Registry number 61791-12-6), 42.2% N-methylpyrrolidone, 42.2% dipropylene glycol monomethyl ether (Registry number 34590-94-8) and 0.2% X-77 (Registry number 11097-66-8). The test plants were then grown in a greenhouse under optimum conditions until, 15 days later for post-emergence and 20 days for pre-emergence, the test was evaluated (100=total damage to plant; 0=no damage to plant).
(§2) Alopecurus myosuroides (ALOMY), Avena fatua (AVEFA), Lolium perenne (LOLPE), Setaria faberi (SETFA), Digitaria sanguinalis (DIGSA), Echinochloa crus-galli (ECHCG)

[2] = system: Echinochloa crus-galli (ECHCG); experiment: as above; details: 360 h, evaluated after 15 days, 100=total damage to plant, 0=no damage
Procedure: as §1, §2

[3] = system: Lolium perenne (LOLPE); experiment: as above; details: 360 h, evaluated after 15 days, 100=total damage to plant, 0=no damage
Procedure: as §1, §2

[4] = system: Setaria faberi (SETFA); experiment: as above; details: 360 h, evaluated after 15 days, 100=total damage to plant, 0=no damage
Procedure: as §1, §2

[5] = system: Alopecurus myosuroides (ALOMY); experiment: as above; details: 360 h, evaluated after 15 days, 100=total damage to plant, 0=no damage
Procedure: as §1, §2

[6] = system: Avena fatua (AVEFA); experiment: as above; details: 360 h, evaluated after 15 days, 100=total damage to plant, 0=no damage
Procedure: as §1, §2

[7] = system: Digitaria sanguinalis (DIGSA); experiment: Example B pre-emergence herbicidal greenhouse test; details: 480 h, evaluated after 20 days, 100=total damage to plant, 0=no damage
Procedure: as §1, §2

[8] = system: Echinochloa crus-galli (ECHCG); experiment: Example B pre-emergence herbicidal greenhouse test; details: 480 h, evaluated after 20 days, 100=total damage to plant, 0=no damage
Procedure: as §1, §2

[9] = system: Lolium perenne (LOLPE); experiment: Example B pre-emergence herbicidal greenhouse test; details: 480 h, evaluated after 20 days, 100=total damage to plant, 0=no damage
Procedure: as §1, §2

[10] = system: Setaria faberi (SETFA); experiment: Example B pre-emergence herbicidal greenhouse test; details: 480 h, evaluated after 20 days, 100=total damage to plant, 0=no damage
Procedure: as §1, §2

[11] = system: Alopecurus myosuroides (ALOMY); experiment: Example B pre-emergence herbicidal greenhouse test; details: 480 h, evaluated after 20 days, 100=total damage to plant, 0=no damage
Procedure: as §1, §2

[12] = system: Avena fatua (AVEFA); experiment: Example B pre-emergence herbicidal greenhouse test; details: 480 h, evaluated after 20 days, 100=total damage to plant, 0=no damage
Procedure: as §1, §2

| SMILES | pest or weed control at 125 g/ha [1] | pest or weed control at 125 g/ha [2] | pest or weed control at 125 g/ha [3] | pest or weed control at 125 g/ha [4] | pest or weed control at 125 g/ha [5] | pest or weed control at 125 g/ha [6] | pest or weed control at 250 g/ha [7] | pest or weed control at 250 g/ha [8] | pest or weed control at 250 g/ha [9] | pest or weed control at 250 g/ha [10] | pest or weed control at 250 g/ha [11] | pest or weed control at 250 g/ha [12] |
| --- | --- | --- | --- | --- | --- | --- | --- | --- | --- | --- | --- | --- |
| Cc1ccc(-c2ccc(Cl)cc2Cl)cc1C1=C(O)[C@H]2CC[C@H](C2)C1=O (single isomer, unassigned) [Compound T12] | 60% | 70% | 0% | 80% | 0% | 10% | 100% | 40% | 70% | 60% | 30% | 40% |
| Cc1ccc(-c2ccc(Cl)c(C#N)c2)cc1C1=C(O)[C@H]2CC[C@H](C2)C1=O (single isomer, unassigned) [Compound T25] | 80% | 0% | 0% | 30% | 20% | 0% | 80% | 50% | 20% | 80% | 0% | 0% |
| Cc1ccc(-c2ccc(Cl)cc2C)cc1C1=C(O)[C@H]2CC[C@H](C2)C1=O (single isomer, unassigned) [Compound T26] | 10% | 60% | 10% | 60% | 20% | 0% | 0% | 30% | 20% | 50% | 0% | 0% |
| Cc1ccc(-c2ccc(Cl)cc2F)cc1C1=C(O)[C@H]2CC[C@H](C2)C1=O (single isomer, unassigned) [Compound T27] | 70% | 80% | 30% | 90% | 30% | 70% | 80% | 80% | 70% | 100% | 60% | 50% |
| Cc1ccc(-c2cc(Cl)cc(Cl)c2)cc1C1=C(O)[C@H]2CC[C@H](C2)C1=O (single isomer, unassigned) [Compound T28] | 0% | 0% | 0% | 10% | 20% | 10% | 0% | 0% | 20% | 0% | 0% | 10% |
| Cc1ccc(-c2ccc(F)c(Cl)c2)cc1C1=C(O)[C@H]2CC[C@H](C2)C1=O (single isomer, unassigned) [Compound T29] | 10% | 50% | 0% | 60% | 30% | 0% | 0% | 20% | 20% | 70% | 10% | 0% |
| COc1ccc(Cl)cc1-c1ccc(C)c(C2=C(O)[C@H]3CC[C@H](C3)C2=O)c1 (single isomer, unassigned) [Compound T30] | 0% | 0% | 10% | 0% | 10% | 10% | 0% | 0% | 0% | 0% | 0% | 0% |
| Cc1ccc(-c2ccc(Cl)c(F)c2)cc1C1=C(O)[C@H]2CC[C@H](C2)C1=O (single isomer, unassigned) [Compound T31] | 70% | 70% | 20% | 80% | 30% | 0% | 70% | 80% | 30% | 100% | 70% | 40% |
| CC(=O)OC1=C(c2c(C)cc(-c3ccccc3)cc2C)C(=O)[C@@H]2CC[C@H]1C2 [Compound P1] | 60% | 60% | 20% | 70% | 20% | 0% | 70% | 100% | 60% | 70% | 30% | 30% |
| Cc1cc(-c2ccccc2)cc(C)c1C1=C(OC(=O)C(C)(C)C)C2CCC(C2)C1=O (stereo not drawn) [Compound P2, 3-(3,5-dimethylbiphen-4-yl)-4-oxo-bicyclo[3.2.1]oct-2-en-2-yl 2,2-dimethylpropionate] | 40% | 60% | 10% | 40% | 30% | 0% | 70% | 50% | 30% | 70% | 30% | 40% |
| CCc1ccc(-c2ccc(F)cc2)cc1C1=C(O)[C@H]2CC[C@H](C2)C1=O [Compound T3] | 80% | 90% | 0% | 90% | 50% | 30% | 80% | 100% | 70% | 100% | 50% | 60% |
| CCc1ccc(-c2ccc(C)cc2)cc1C1=C(O)[C@H]2CC[C@H](C2)C1=O [Compound T5] | 50% | 80% | 0% | 70% | 0% | 0% | 10% | 100% | 0% | 0% | 0% | 10% |
| Cc1cc(-c2ccccc2)cc(C)c1C1=C(O)[C@H]2CC[C@H](C2)C1=O [Compound T6, 3-(3,5-dimethylbiphen-4-yl)bicyclo[3.2.1]-2,4-dione] | 10% | 30% | 10% | 0% | 20% | 10% | 100% | 90% | 50% | 80% | 60% | 0% |
